Measured values reported in patent US9708334B2, “Substituted 2,4,5,6-tetrahydropyrrolo[3,4-c]pyrazole and 4,5,6,7-tetrahydro-2H-pyrazolo[4,3-c]pyridine compounds as GlyT1 inhibitors” (DART NEUROSCIENCE (CAYMAN) LTD., priority 2014, dated 2017).

target: T1, GlyT1 (Homo sapiens, UniProt P48067); assay: Glycine Transporter 1 (GlyT1) uptake assay, scintillation proximity assay of [14C]-glycine uptake; assay type: cell-based; details: SPA, four parameter logistic fit, read-out: GlyT1 (pIC50) (converted)
T1 construct: expressed in transfected cells
T1 sequence (P48067 1-706): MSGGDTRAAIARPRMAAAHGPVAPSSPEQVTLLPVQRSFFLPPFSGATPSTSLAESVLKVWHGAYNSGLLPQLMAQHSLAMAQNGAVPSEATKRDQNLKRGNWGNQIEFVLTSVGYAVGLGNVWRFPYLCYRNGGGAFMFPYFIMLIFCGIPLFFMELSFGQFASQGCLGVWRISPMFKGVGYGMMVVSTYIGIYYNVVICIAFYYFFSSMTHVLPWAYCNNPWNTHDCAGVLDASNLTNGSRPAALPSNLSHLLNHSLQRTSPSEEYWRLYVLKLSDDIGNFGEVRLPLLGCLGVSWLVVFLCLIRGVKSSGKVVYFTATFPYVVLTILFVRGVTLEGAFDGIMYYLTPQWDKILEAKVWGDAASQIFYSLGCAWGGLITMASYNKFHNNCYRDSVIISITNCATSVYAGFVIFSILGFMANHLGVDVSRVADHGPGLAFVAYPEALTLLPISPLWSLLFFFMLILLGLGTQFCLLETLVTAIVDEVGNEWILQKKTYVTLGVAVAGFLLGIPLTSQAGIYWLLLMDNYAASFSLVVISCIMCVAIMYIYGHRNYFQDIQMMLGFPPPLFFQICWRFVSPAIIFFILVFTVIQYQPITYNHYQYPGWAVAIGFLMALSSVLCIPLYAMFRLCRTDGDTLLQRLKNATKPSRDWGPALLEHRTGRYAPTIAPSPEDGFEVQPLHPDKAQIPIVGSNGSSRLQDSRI
In short: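 IC50 values derive from four-parameter logistic curves fitted to dose-response data. Uptake of [14C]-glycine measured in scintillation proximity format.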

IC50	Structure (SMILES)
1000 to 10000 nM	CC(C)Oc1ccc(C#N)cc1C(=O)N1Cc2cn(-c3ccn4ccnc4c3)nc2C1 [Example 424, 3-(2-{Imidazo[1 2-a]pyridin-7-yl}-2H 4H 5H 6H-pyrrolo[3,4-c]pyrazole-5-carbonyl)-4-(propan-2-yloxy)benzonitrile]
100 to 1000 nM	C[C@H](Oc1ccc(C#N)cc1C(=O)N1Cc2cn(-c3ccn4ccnc4c3)nc2C1)C(F)(F)F [Example 425, 3-(2-{Imidazo[1 2-a]pyridin-7-yl}-2H 4H 5H 6H-pyrrolo[3,4-c]pyrazole-5-carbonyl)-4-{[(2S)-1 1 1-trifluoropropan-2-yl]oxy}benzonitrile]
< 100 nM	CS(=O)(=O)c1ccc(-c2cccc(F)c2)c(C(=O)N2Cc3cn(CC4CCC4)nc3C2)c1 [Example 426, 2-(Cyclobutylmethyl)-5-[2-(3-fluorophenyl)-5-methanesulfonylbenzoyl]-2H 4H 5H 6H-pyrrolo[3,4-c]pyrazole]
< 100 nM	CC(C)Cn1cc2c(n1)CN(C(=O)c1cc(S(C)(=O)=O)ccc1-c1cccc(F)c1)C2 [Example 427, 5-[2-(3-Fluorophenyl)-5-methanesulfonylbenzoyl]-2-(2-methylpropyl)-2H 4H 5H 6H-pyrrolo[3,4-c]pyrazole]
< 100 nM	CCS(=O)(=O)c1ccc(N2CCC(F)(F)CC2)c(C(=O)N2Cc3cn(CC4CCC4)nc3C2)c1 [Example 428, 1-{2-[2-(Cyclobutylmethyl)-2H 4H 5H 6H-pyrrolo[3,4-c]pyrazole-5-carbonyl]-4-(ethanesulfonyl)phenyl}-4 4-difluoropiperidine]

The remaining lines, values behind:

Structure (SMILES)	IC50
CC[C@H](C)Cn1cc2c(n1)CN(C(=O)c1cc(C#N)ccc1OC(C)C)C2 [Example 416, 3-{2-[(2S)-2-Methylbutyl]-2H 4H 5H 6H-pyrrolo[3,4-c]pyrazole-5-carbonyl}-4-(propan-2-yloxy)benzonitrile]	100 to 1000 nM
CCS(=O)(=O)c1ccc(O[C@@H](C)C(F)(F)F)c(C(=O)N2Cc3cn(C4CCCC4)nc3C2)c1 [Example 417, 2-Cyclopentyl-5-[5-(ethanesulfonyl)-2-{[(2S)-1 1 1-trifluoropropan-2-yl]oxy}benzoyl]-2H 4H 5H 6H-pyrrolo[3,4-c]pyrazole]	< 100 nM
CC[C@H](C)Cn1cc2c(n1)CN(C(=O)c1cc(C#N)ccc1O[C@@H](C)C(F)(F)F)C2 [Example 418, 3-{2-[(2S)-2-Methylbutyl]-2H 4H 5H 6H-pyrrolo[3,4-c]pyrazole-5-carbonyl}-4-{[(2S)-1 1 1-trifluoropropan-2-yl]oxy}benzonitrile]	100 to 1000 nM
C[C@H](Oc1ccc(C#N)cc1C(=O)N1Cc2cn(CC3CCOC3)nc2C1)C(F)(F)F (stereo partly drawn) [Example 419, 3-[2-(Oxolan-3-ylmethyl)-2H 4H 5H 6H-pyrrolo[3,4-c]pyrazole-5-carbonyl]-4-{[(2S)-1 1 1-trifluoropropan-2-yl]oxy}benzonitrile]	100 to 1000 nM
CC(C)Oc1ccc(C#N)cc1C(=O)N1Cc2cn(CC3CCOC3)nc2C1 (stereo not shown) [Example 420, 3-[2-(Oxolan-3-ylmethyl)-2H 4H 5H 6H-pyrrolo[3,4-c]pyrazole-5-carbonyl]-4-(propan-2-yloxy)benzonitrile]	100 to 1000 nM
C[C@H](Oc1ccc(C#N)cc1C(=O)N1Cc2cnn(-c3ccnnc3)c2C1)C(F)(F)F [Example 421, 3-[1-(Pyridazin-4-yl)-1H 4H 5H 6H-pyrrolo[3,4-c]pyrazole-5-carbonyl]-4-{[(2S)-1 1 1-trifluoropropan-2-yl]oxy}benzonitrile]	100 to 1000 nM
CC(C)Oc1ccc(C#N)cc1C(=O)N1Cc2cn(-c3ccnnc3)nc2C1 [Example 422, 4-(Propan-2-yloxy)-3-[2-(pyridazin-4-yl)-2H 4H 5H 6H-pyrrolo[3,4-c]pyrazole-5-carbonyl]benzonitrile]	100 to 1000 nM
C[C@H](Oc1ccc(C#N)cc1C(=O)N1Cc2cn(-c3ccnnc3)nc2C1)C(F)(F)F [Example 423, 3-[2-(Pyridazin-4-yl)-2H 4H 5H 6H-pyrrolo[3,4-c]pyrazole-5-carbonyl]-4-{[(2S)-1 1 1-trifluoropropan-2-yl]oxy}benzonitrile]	< 100 nM
